The source of these data is ChEMBL document CHEMBL1201862, “PubChem BioAssay data set” (2004).

Common to all, as to assay: NCI tumour cell line growth inhibition, 48 h
For assay [1], the system named is SK-MEL-2.
Assay [2] has as its system Malme-3M.
The subject of assay [3] is HOP-62.
Assay [4] has as its system NCI-H522.
Assay [5] relates to K562.
The test system of assay [6] is NCI-H460.
Assay [7] relates to OVCAR-3.
Assay [8] has as its system SK-MEL-5.
The test system of assay [9] is RXF 393.
Assay [10] concerns CAKI-1.
Assay [11] relates to TK-10.
The test system of assay [12] is SNB-19.
Assay [13] deals with HCT-15.
The test system of assay [14] is SK-OV-3.
Assay [15] relates to DU-145.
For assay [16], the system named is SW-620.
Assay [17] deals with MDA-MB-435.
Assay [18] has as its system ACHN.
Assay [19] concerns COLO 205.
Assay [20] deals with MDA-MB-231.

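Cultured in 96-well plates, cells were exposed to test compound for 48 hours across five concentrations. Here, GI50 denotes the concentration required for 50% inhibition of growth.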 Active and inactive are the calls of the source. Cut-off read from the data, not from the text of the source: active = GI50 up to about 1.1 µM and inactive = higher.

`COC(=O)c1sc2ncc3c(c2c1N)CCCCCC3`: the GI50 was > 100 µM (inactive) in assay [1]; > 100 µM (inactive) in assay [2]; 53.6 µM (inactive) in [3]; > 100 µM (inactive) in assay [4]; > 100 µM (inactive) in [5]; > 100 µM (inactive) in [6]. Besides, the GI50 in [7], in assay [8], in [9], in assay [10], in assay [11] and in assay [12] was > 100 µM (inactive) in each case. The GI50 in assay [13] is above 100 µM; in [14] it was > 100 µM (inactive); in assay [15] it was > 100 µM (inactive); in assay [16], > 100 µM (inactive); in assay [17] it was > 100 µM (inactive); in [18], > 100 µM (inactive). For the same compound, the GI50 in assay [19] and in assay [20] was > 100 µM (inactive) throughout.

Take `CN(C)CCCN1CCC2(CCC(C(C)(C)C)CC2)CC1`: the GI50 in [1] is 1.75 µM (inactive); in assay [2], 1.89 µM (inactive); in assay [3], 2.15 µM (inactive); in [4], 2.49 µM (inactive); in assay [5] it was 0.266 µM (active); in assay [6], 0.8 µM (active). Also, the GI50 was 3.1 µM (inactive) in [7]; 1.61 µM (inactive) in assay [8]; 1.6 µM (inactive) in [9]; 2.72 µM (inactive) in [10]; 1.66 µM (inactive) in [11]; 3.27 µM (inactive) in assay [12]. The GI50 in assay [13] was 2.22 µM; in [14] it was 9.29 µM (inactive); in assay [15], 6.71 µM (inactive); in assay [16], 2.4 µM (inactive); in [17], 0.47 µM (active); in assay [18], 7.05 µM (inactive). The values for the GI50 in [19] and in assay [20] were 1.51 µM (inactive) and 1.91 µM (inactive), respectively.

For the compound `CC(=O)OC1=CC(n2cc(F)c(=O)[nH]c2=O)OC(C)C1=O` (stereo not given), the GI50 is > 100 µM (inactive) in assay [1]; 19.6 µM (inactive) in assay [2]; 23.7 µM (inactive) in assay [3]; > 95.5 µM (inactive) in assay [4]; 57 µM (inactive) in assay [5]; 4.59 µM (inactive) in assay [6]. For the same compound, the GI50 in [7] was 25.3 µM (inactive); in assay [8], 13.2 µM (inactive); in assay [9], 55.3 µM (inactive); in assay [10], > 52.2 µM (inactive); in assay [11] it was > 77.4 µM (inactive); in [12], 61.9 µM (inactive). For the same compound, the GI50 in assay [13] was 8.95 µM; in assay [14] it was 99.1 µM (inactive); in [15], 21.6 µM (inactive); in assay [16], 59 µM (inactive); in assay [17], 11.4 µM (inactive); in assay [18] it was 18.4 µM (inactive). The GI50 in assay [19] was 15.3 µM (inactive); in [20], > 88.7 µM (inactive).

With `COC(=O)C(=O)c1cc2ccccc2n1S(=O)(=O)c1ccccc1`, the GI50 in [1], in assay [2], in assay [3], in assay [4], in assay [5] and in [6] was > 100 µM (inactive) each time. Moreover, the GI50 in [7], in assay [8], in assay [9], in assay [10], in assay [11] and in assay [12] was > 100 µM (inactive) in each case. For the same compound, the GI50 in assay [13] is above 100 µM; in [14], > 100 µM (inactive); in assay [15], > 100 µM (inactive); in assay [16], > 100 µM (inactive); in [17], > 100 µM (inactive); in [18], > 100 µM (inactive). In addition, the GI50 in assay [19] and in [20] was > 100 µM (inactive) each time.

As to `O=C(O)/C=C\C(=O)Nc1ccc2c(c1)C(=O)c1cc(F)ccc1-2`, the GI50 in [1] was > 100 µM (inactive); in [2], > 100 µM (inactive); in [3], > 100 µM (inactive); in assay [4], 56.2 µM (inactive); in [5], > 100 µM (inactive); in assay [6], > 100 µM (inactive). For the same compound, the GI50 in assay [7], in [8], in [9], in assay [10], in assay [11] and in assay [12] was > 100 µM (inactive) each time. Moreover, the GI50 was above 100 µM in assay [13]; > 100 µM (inactive) in assay [14]; > 100 µM (inactive) in [15]; > 100 µM (inactive) in assay [16]; > 100 µM (inactive) in assay [17]; > 100 µM (inactive) in assay [18]. In addition, the GI50 in [19] and in assay [20] was > 100 µM (inactive) in each case.

As to `O=C1OCC2=C1C(c1ccc3c(c1)OCO3)c1cc3c(cc1O2)OCO3` (stereo not given), the GI50 in assay [1] is 0.375 µM (active); in assay [2] it was 3.1 µM (inactive); in assay [3] it was 0.851 µM (active); in [4] it was 0.262 µM (active); in [5], 0.269 µM (active); in assay [6], 0.522 µM (active). For the same compound, the GI50 in assay [7] was 2.72 µM (inactive); in assay [8], 0.486 µM (active); in [9], 0.828 µM (active); in assay [10], 0.807 µM (active); in assay [11] it was 5.81 µM (inactive); in assay [12], 2.1 µM (inactive). The GI50 in assay [13] was 0.346 µM; in assay [14] it was 0.776 µM (active); in assay [15], 1.64 µM (inactive); in assay [16], 0.406 µM (active); in [17], 0.0708 µM (active); in [18], 3.27 µM (inactive). The GI50 is 0.44 µM (active) in assay [19] and 0.813 µM (active) in assay [20].

Turning to `Cc1cc(-c2nc3cccc(F)c3s2)ccc1N`, the GI50 in assay [1] was > 85.3 µM (inactive); in [2], > 100 µM (inactive); in assay [3] it was > 100 µM (inactive); in [4] it was > 100 µM (inactive); in assay [5], > 56.6 µM (inactive); in assay [6] it was > 20.4 µM (inactive). Moreover, the GI50 was > 66.5 µM (inactive) in assay [7]; > 100 µM (inactive) in [8]; > 71 µM (inactive) in assay [9]; > 59.6 µM (inactive) in assay [10]; 0.48 µM (active) in [11]; > 80.2 µM (inactive) in assay [12]. Besides, the GI50 in assay [13] was above 67.6 µM; in assay [14], > 100 µM (inactive); in [15], > 73.5 µM (inactive); in assay [16], > 87.9 µM (inactive); in assay [17], > 61.4 µM (inactive); in assay [18] it was > 74.1 µM (inactive). For the same compound, the GI50 in assay [19] is > 100 µM (inactive); in [20], 98.9 µM (inactive).

With `O=C1CSC(c2cccc(Oc3ccccc3)c2)N1c1cc(Cl)ccc1Cl` (stereo not given), the GI50 in assay [1] is 18.7 µM (inactive); in [2], 27.5 µM (inactive); in assay [3], 21.9 µM (inactive); in [4], 20.9 µM (inactive); in [5] it was 19.4 µM (inactive); in assay [6], 20.1 µM (inactive). In addition, the GI50 in [7] was 22.1 µM (inactive); in assay [8], 16.5 µM (inactive); in assay [9], 18.5 µM (inactive); in assay [10], 22.5 µM (inactive); in assay [11], 25.5 µM (inactive); in [12], 22.8 µM (inactive). The GI50 in assay [13] was 23.8 µM; in [14], 39.8 µM (inactive); in assay [15], 35.2 µM (inactive); in assay [16] it was 22.3 µM (inactive); in [17], 15.4 µM (inactive); in [18], 24 µM (inactive). Moreover, the GI50 is 36.7 µM (inactive) in assay [19] and 20.7 µM (inactive) in assay [20].

Take `COc1ccc(/C=N/c2c(O)ccc3ccccc23)cc1OC`: the GI50 in assay [1] was > 100 µM (inactive); in assay [2], 14.5 µM (inactive); in assay [3] it was 92 µM (inactive); in [4], 15.6 µM (inactive); in assay [5] it was 47.1 µM (inactive); in [6], 80.9 µM (inactive). In addition, the GI50 is 5.14 µM (inactive) in assay [7]; 56.2 µM (inactive) in assay [8]; 69.3 µM (inactive) in [9]; 63.2 µM (inactive) in [10]; > 100 µM (inactive) in assay [11]; > 100 µM (inactive) in assay [12]. The GI50 in [13] was above 100 µM; in assay [14] it was > 100 µM (inactive); in assay [15] it was > 100 µM (inactive); in [16], > 100 µM (inactive); in assay [17], 18.9 µM (inactive); in assay [18] it was > 100 µM (inactive). In addition, the GI50 in assay [19] was 33 µM (inactive); in assay [20] it was 63.7 µM (inactive).

As for `CCOC(=O)c1sc(N)nc1N1CCCC1`, the GI50 in assay [1], in assay [2], in [3], in assay [4], in [5] and in assay [6] was > 100 µM (inactive) throughout. Besides, the GI50 was > 100 µM (inactive) in assay [7]; > 100 µM (inactive) in assay [8]; 0.942 µM (active) in assay [9]; > 100 µM (inactive) in [10]; > 100 µM (inactive) in [11]; > 100 µM (inactive) in [12]. In addition, the GI50 was above 100 µM in assay [13]; > 100 µM (inactive) in assay [14]; > 100 µM (inactive) in [15]; > 100 µM (inactive) in assay [16]; > 100 µM (inactive) in assay [17]; > 100 µM (inactive) in [18]. The GI50 in assay [19] and in [20] was > 100 µM (inactive) throughout.
